# What was measured:
# Experiment in all cases: relative viability (nuclei count vs DMSO), 5 days (fraction); higher = more cells survive
# EMC-BAC-2 = test system: EMC-BAC-2
# Method in brief: (§1)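 One day after seeding in 1536-well plates, lung cancer cell lines were dosed by pin tool. Dosing was either single-drug or a fixed anchor-drug dose plus five library-drug doses (not always all listed) in √10 steps. After 5 days, nuclei were stained in one fix-and-stain step and counted on 4× images, and relative viability is the nuclei count of treated wells over that of vehicle wells, given as the median of duplicate plates.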
# EPLC-272H = test system: EPLC-272H
# Method in brief: as §1
# H3255 = test system: H3255
# Method in brief: as §1
# HOP-62 = test system: HOP-62
# Method in brief: as §1
# LCLC-97TM1 = test system: LCLC-97TM1
# Method in brief: as §1
# LXF-289 = test system: LXF-289
# Method in brief: as §1
# NCI-H1563 = test system: NCI-H1563
# Method in brief: as §1
# NCI-H1734 = test system: NCI-H1734
# Method in brief: as §1
# NCI-H1915 = test system: NCI-H1915
# Method in brief: as §1
# NCI-H1993 = test system: NCI-H1993
# Method in brief: as §1
# NCI-H2009 = test system: NCI-H2009
# Method in brief: as §1
# NCI-H2023 = test system: NCI-H2023
# Method in brief: as §1
# NCI-H2085 = test system: NCI-H2085
# Method in brief: as §1
# NCI-H2126 = test system: NCI-H2126
# Method in brief: as §1
# NCI-H2347 = test system: NCI-H2347
# Method in brief: as §1
# NCI-H322M = test system: NCI-H322M
# Method in brief: as §1
# NCI-H647 = test system: NCI-H647
# Method in brief: as §1
# NCI-H661 = test system: NCI-H661
# Method in brief: as §1
# NCI-H727 = test system: NCI-H727
# Method in brief: as §1
# PC-14 = test system: PC-14
# Method in brief: as §1
# SK-LU-1 = test system: SK-LU-1
# Method in brief: as §1
# SW 1573 = test system: SW 1573
# Method in brief: as §1
smiles,measurement,setting,value
Nc1ccn([C@@H]2O[C@H](CO)[C@@H](O)[C@@H]2O)c(=O)n1 [Cytarabine] + CS(=O)(=O)CCNCc1ccc(-c2ccc3ncnc(Nc4ccc(OCc5cccc(F)c5)c(Cl)c4)c3c2)o1 [Lapatinib] (partner 2 µM),relative viability,EMC-BAC-2; first compound 0.005 µM,0.857
same,relative viability,EMC-BAC-2; first compound 0.01581 µM,0.85
same,relative viability,EMC-BAC-2; first compound 0.05 µM,0.763
same,relative viability,EMC-BAC-2; first compound 0.1581 µM,0.283
same,relative viability,EMC-BAC-2; first compound 0.5 µM,0.287
same,relative viability,EPLC-272H; first compound 0.005 µM,0.717
same,relative viability,EPLC-272H; first compound 0.01581 µM,0.756
same,relative viability,EPLC-272H; first compound 0.05 µM,0.592
same,relative viability,EPLC-272H; first compound 0.1581 µM,0.315
same,relative viability,EPLC-272H; first compound 0.5 µM,0.417
same,relative viability,H3255; first compound 0.005 µM,0.268
same,relative viability,H3255; first compound 0.01581 µM,0.226
same,relative viability,H3255; first compound 0.05 µM,0.158
same,relative viability,H3255; first compound 0.1581 µM,0.197
same,relative viability,H3255; first compound 0.5 µM,0.188
same,relative viability,HOP-62; first compound 0.005 µM,0.825
same,relative viability,HOP-62; first compound 0.01581 µM,0.821
same,relative viability,HOP-62; first compound 0.05 µM,0.385
same,relative viability,HOP-62; first compound 0.1581 µM,0.134
same,relative viability,HOP-62; first compound 0.5 µM,0.0735
same,relative viability,LCLC-97TM1; first compound 0.005 µM,1.06
same,relative viability,LCLC-97TM1; first compound 0.01581 µM,0.495
same,relative viability,LCLC-97TM1; first compound 0.05 µM,0.163
same,relative viability,LCLC-97TM1; first compound 0.1581 µM,0.161
same,relative viability,LCLC-97TM1; first compound 0.5 µM,0.0949
same,relative viability,LXF-289; first compound 0.005 µM,0.806
same,relative viability,LXF-289; first compound 0.01581 µM,0.851
same,relative viability,LXF-289; first compound 0.05 µM,0.809
same,relative viability,LXF-289; first compound 0.1581 µM,0.429
same,relative viability,LXF-289; first compound 0.5 µM,0.339
same,relative viability,NCI-H1563; first compound 0.005 µM,0.935
same,relative viability,NCI-H1563; first compound 0.01581 µM,0.859
same,relative viability,NCI-H1563; first compound 0.05 µM,0.497
same,relative viability,NCI-H1563; first compound 0.1581 µM,0.926
same,relative viability,NCI-H1563; first compound 0.5 µM,0.708
same,relative viability,NCI-H1734; first compound 0.005 µM,0.628
same,relative viability,NCI-H1734; first compound 0.01581 µM,0.341
same,relative viability,NCI-H1734; first compound 0.05 µM,0.481
same,relative viability,NCI-H1734; first compound 0.1581 µM,0.151
same,relative viability,NCI-H1734; first compound 0.5 µM,0.134
same,relative viability,NCI-H1915; first compound 0.005 µM,0.868
same,relative viability,NCI-H1915; first compound 0.01581 µM,0.955
same,relative viability,NCI-H1915; first compound 0.05 µM,0.848
same,relative viability,NCI-H1915; first compound 0.1581 µM,0.393
same,relative viability,NCI-H1915; first compound 0.5 µM,0.257
same,relative viability,NCI-H1993; first compound 0.005 µM,0.71
same,relative viability,NCI-H1993; first compound 0.01581 µM,0.929
same,relative viability,NCI-H1993; first compound 0.05 µM,0.682
same,relative viability,NCI-H1993; first compound 0.1581 µM,0.618
same,relative viability,NCI-H1993; first compound 0.5 µM,0.546
same,relative viability,NCI-H2009; first compound 0.005 µM,0.992
same,relative viability,NCI-H2009; first compound 0.01581 µM,0.878
same,relative viability,NCI-H2009; first compound 0.05 µM,0.444
same,relative viability,NCI-H2009; first compound 0.1581 µM,0.694
same,relative viability,NCI-H2009; first compound 0.5 µM,0.349
same,relative viability,NCI-H2023; first compound 0.005 µM,0.515
same,relative viability,NCI-H2023; first compound 0.01581 µM,0.224
same,relative viability,NCI-H2023; first compound 0.05 µM,0.144
same,relative viability,NCI-H2023; first compound 0.1581 µM,0.0848
same,relative viability,NCI-H2023; first compound 0.5 µM,0.0542
same,relative viability,NCI-H2085; first compound 0.005 µM,0.735
same,relative viability,NCI-H2085; first compound 0.01581 µM,0.725
same,relative viability,NCI-H2085; first compound 0.05 µM,0.666
same,relative viability,NCI-H2085; first compound 0.1581 µM,0.622
same,relative viability,NCI-H2085; first compound 0.5 µM,0.374
same,relative viability,NCI-H2126; first compound 0.005 µM,0.73
same,relative viability,NCI-H2126; first compound 0.01581 µM,0.701
same,relative viability,NCI-H2126; first compound 0.05 µM,0.61
same,relative viability,NCI-H2126; first compound 0.1581 µM,0.516
same,relative viability,NCI-H2126; first compound 0.5 µM,0.449
same,relative viability,NCI-H2347; first compound 0.005 µM,1.01
same,relative viability,NCI-H2347; first compound 0.01581 µM,0.942
same,relative viability,NCI-H2347; first compound 0.05 µM,0.764
same,relative viability,NCI-H2347; first compound 0.1581 µM,0.659
same,relative viability,NCI-H2347; first compound 0.5 µM,0.825
same,relative viability,NCI-H322M; first compound 0.005 µM,0.585
same,relative viability,NCI-H322M; first compound 0.01581 µM,0.609
same,relative viability,NCI-H322M; first compound 0.05 µM,0.459
same,relative viability,NCI-H322M; first compound 0.1581 µM,0.354
same,relative viability,NCI-H322M; first compound 0.5 µM,0.348
same,relative viability,NCI-H647; first compound 0.005 µM,0.596
same,relative viability,NCI-H647; first compound 0.01581 µM,0.411
same,relative viability,NCI-H647; first compound 0.05 µM,0.27
same,relative viability,NCI-H647; first compound 0.1581 µM,0.128
same,relative viability,NCI-H647; first compound 0.5 µM,0.0883
same,relative viability,NCI-H661; first compound 0.005 µM,0.544
same,relative viability,NCI-H661; first compound 0.01581 µM,0.465
same,relative viability,NCI-H661; first compound 0.05 µM,0.49
same,relative viability,NCI-H661; first compound 0.1581 µM,0.278
same,relative viability,NCI-H661; first compound 0.5 µM,0.233
same,relative viability,NCI-H727; first compound 0.005 µM,0.766
same,relative viability,NCI-H727; first compound 0.01581 µM,0.602
same,relative viability,NCI-H727; first compound 0.05 µM,0.606
same,relative viability,NCI-H727; first compound 0.1581 µM,0.339
same,relative viability,NCI-H727; first compound 0.5 µM,0.28
same,relative viability,PC-14; first compound 0.005 µM,0.282
same,relative viability,PC-14; first compound 0.01581 µM,0.236
same,relative viability,PC-14; first compound 0.05 µM,0.273
same,relative viability,PC-14; first compound 0.1581 µM,0.17
same,relative viability,PC-14; first compound 0.5 µM,0.221
same,relative viability,SK-LU-1; first compound 0.005 µM,0.659
same,relative viability,SK-LU-1; first compound 0.01581 µM,0.744
same,relative viability,SK-LU-1; first compound 0.05 µM,0.697
same,relative viability,SK-LU-1; first compound 0.1581 µM,0.345
same,relative viability,SK-LU-1; first compound 0.5 µM,0.467
same,relative viability,SW 1573; first compound 0.005 µM,1.17
same,relative viability,SW 1573; first compound 0.01581 µM,0.879
same,relative viability,SW 1573; first compound 0.05 µM,0.952
same,relative viability,SW 1573; first compound 0.1581 µM,0.606
same,relative viability,SW 1573; first compound 0.5 µM,0.329

# Reference: the supplement of paper PMC10307832
